# Laboratory results: patent publication US20120321571A1, “PARABEN COMPOSITIONS” (ANTERIOS, INC., priority 2011, published 2012)
# System: axillary sweating
# Assay: Clinical study of the effect of Propylparaben on axillary sweating (gravimetric sweat measurement)
# Assay type: in vivo, human
smiles,measurement,setting,value
CCCOC(=O)c1ccc(O)cc1 [Propylparaben],greater effectiveness in reducing sweat production than placebo (by responder assessment),"based on percent of subjects with at least 30% reduction versus Baseline, versus placebo (water)",245%
same,conclusion on activity in reducing sweat production,overall conclusion of the clinical study,biologically active in reducing sweat production
same,"reduction in sweat production (average), gravimetric sweat measurement","subjects with moderate to severe primary axillary hyperhidrosis, single topical treatment, 0.20 mg per axilla, two weeks after treatment, 5 minute collection",177 mg
same,percent of subjects with at least a 30% reduction in sweat production compared to Baseline,"two weeks after single topical treatment, 0.20 mg per axilla, gravimetric sweat measurement",70%
same,greater reduction in sweat production than the control (placebo) group,"two weeks after single topical treatment, 0.20 mg per axilla, versus placebo (water)",337%
